Test results as given in PMC10054552, “Phototoxic Potential of Different DNA Intercalators for Skin Cancer Therapy: In Vitro Screening” (International Journal of Molecular Sciences, 2023).
Like-named read-outs stand apart in the source and are kept apart here.

Test system: WM983b cells
Assay: Phototoxicity assay in WM983b cells (irradiation 2.5 J/cm², resazurin)
Format: cell-based
Settings: Homo sapiens, light or radiation study, treated 24 h
Source text: The MET1 SCC cell line (human squamous cell carcinoma) was obtained from Ximbio (London, UK), HaCaT (immortalized human keratinocytes cell line) was obtained from Addexbio (San Diego, CA, USA) and WM983b (human metastatic melanoma cell line) was obtained from Rockland (Pottstown, PA, USA). Cells were maintained in Dulbecco’s Modified Eagle Medium (DMEM) supplemented with 10% (v/v) fetal bovine serum (FBS) for MET1 and HaCaT and 5% (v/v) for WM983b cells, and Pen–Strep (penicillin 100 U/mL and streptomycin 100 µg/mL). Cells were cultivated in an incubator (Sanyo MCO-19AIC-UV) at 37 °C in a 5% CO2 humidified atmosphere.
For the phototoxicity studies, 96-well plates were seeded with MET1 cells at a density of 20,000 cells/cm², incubated overnight and treated for 24 h with MB, AO, GV, QT, CUR, EGCG, PHE, NEO and BIPY diluted in culture medium in a concentration range of 1.25 µM to 40 µM (in sextuplicate). […] Cells cultured with complete medium and cells cultured with medium supplemented with 0.2% (v/v) or 10% (v/v) of DMSO were used as negative (NC), solvent (SC) and positive control (PC), respectively. The plates were incubated for 24 h, followed by washing with PBS supplemented with calcium and magnesium. Afterwards, complete culture medium without phenol red was added, and the plates were irradiated from above and submitted to a dose of 2.5 J/cm² of irradiation emitted by different wavelength light sources coupled with a homemade irradiation system created in our laboratory. These light sources consisted of an equivalent 26 cm UV tubular lamp (254 nm) (Phillips TUV PLS 9W/2PHg) and a tricolor LED lamp (Led Grow Light Bulb E26/E27) with intensity peaks at 457 nm (blue light), 583 nm (yellow light) and 640 nm (red light) provided by 18, 18 and 28 LEDs, respectively, with dimensions of 3 × 3 mm^2. The irradiance values of light at 254, 457, 583 and 640 nm wavelengths were of 16.7, 55, 45 and 25 W/m^2, respectively. This experiment was performed in an incubator that was able to keep plates in a dark environment; therefore, the dark control plates were protected from any light source, as well as the others, with the exception of the irradiation that each one was submitted to. Plates were incubated for another 24 h, and finally, the resazurin assay was performed as previously described in Section 3.3. For the phototoxicity study using WM983b cells, plates were prepared at a cell density of 40,000 cells/cm², and cells were treated with MB and AO only.

CN(C)c1ccc2cc3ccc(N(C)C)cc3nc2c1 [Acridine orange, acridine orange]
IC50 (457 nm light, 2.5 J/cm², read-out: IC50 irradiated samples (457 nm)): 1.1 µM
IC50 (without irradiation, read-out: IC50 non-irradiated samples): 17.5 µM
